Reference: article PMC10022191, “Safety, tolerability, pharmacokinetics, and antiviral activity of the novel core protein allosteric modulator ZM-H1505R (Canocapavir) in chronic hepatitis B patients: a randomized multiple-dose escalation trial” (BMC Medicine, 2023)
“Also recorded” adds a separate entry of the source.

Assay: phase 1b trial: adverse reactions and tolerability in CHB patients
Type: in vivo, human
Procedure: This was a randomized, open-label, placebo-controlled, phase 1b study (Clinical Trial Registration Number: NCT05470829; Chinese Clinical Trial Registration Number: CTR20210686), which was conducted at the Phase I Clinical Research Center, The First Hospital of Jilin University (Jilin, China), during the period from May to November of 2021. In order to minimize the safety risk of Canocapavir, an adaptive ascending dosing strategy was adopted for Canocapavir treatment in this study. The second and third assigned doses were initiated only after the safety data from the previous dose was reviewed and determined to be safe by the Principal Investigator and the Sponsor on day 8 postdosing (post drug administration days). Canocapavir was administered at the Clinical Research Center on days 1–8 and day 28 and at home on days 9–27 under the same conditions (fixed administration time and fasting condition). Patients were required to visit the facility for follow-up on days 15, 22, 27, 43 ± 1, and 57 ± 2 postdosing. The study protocol and informed consent forms were prepared according to the principles of the Declaration of Helsinki. The study protocol was approved by the Institutional Review Board of the First Hospital of Jilin University (approval number: 20Y201-006). All recruited patients provided written informed consent before participating in any study-related procedures.
A total of 30 CHB patients were recruited in this study and were randomly assigned into three cohorts (N = 10, each). In these three cohorts, the patients (in a ratio of 4:1) received 50, 100, or 200 mg of Canocapavir or placebo once a day for 28 consecutive days under fasting conditions, followed by a 28-day follow-up (Fig. 1). The patients, care providers, and those assessing outcomes were blinded during the study. This random process was completed in an electronic data capture system, and the details are shown in Additional file 1.
To examine possible adverse events (AEs) and adverse reactions (an adverse event is definitely, probably, or possibly related to the drug) in this study, the recruited patients underwent regular clinical laboratory testing, 12-lead electrocardiograms, examination of vital signs, abdominal ultrasound, and regular physical examinations, using the baseline data as a control. The severity of AEs and laboratory abnormalities were graded according to the Common Terminology Criteria for Adverse Events (CTCAE), version 5.0, which defines toxicity criteria. The AEs were coded using the Medical Dictionary for Regulatory Activities, version 24.1 (McLean, VA, USA).

## O=C1CO[C@H](c2cn(-c3ccc(Br)cc3)nc2-c2ccc(F)cc2)N1CCc1ccc2[nH]c(=O)[nH]c2c1 [Canocapavir]
50 mg q.d., 28 days
  Adverse reactions, grade I, number of subjects: 2 n
  Adverse reactions, grade I, percent of subjects: 25.00%
  Adverse reactions, grade II, number of subjects: 0 n
  Adverse reactions, grade II, percent of subjects: 0%
  Adverse reactions, grade III, number of subjects: 1 n
  Adverse reactions, grade III, percent of subjects: 12.50%
  Adverse reactions, total (all grades), number of subjects: 3 n
  Adverse reactions, total (all grades), percent of subjects: 37.5%
  Decreased neutrophil count, cases: 1 case
  Decreased neutrophil count, grade II, number of subjects: 0 n
  Decreased neutrophil count, grade II, percent of subjects: 0%
  Decreased neutrophil count, grade III, percent of subjects: 12.50%
  Decreased neutrophil count, number of subjects (%): 1 (12.5) n (%)
  Decreased platelet count, cases: 0 case
  Decreased platelet count, grade I, number of subjects: 0 n
  Decreased platelet count, grade I, percent of subjects: 0%
  Decreased platelet count, number of subjects (%): 0 (0) n (%)
  Decreased serum phosphorus, cases: 0 case
  Decreased serum phosphorus, grade I, number of subjects: 0 n
  Decreased serum phosphorus, grade I, percent of subjects: 0%
  Decreased serum phosphorus, number of subjects (%): 0 (0) n (%)
  Decreased white blood cell count, cases: 1 case
  Decreased white blood cell count, grade II, percent of subjects: 12.50%
  Decreased white blood cell count, number of subjects (%): 1 (12.5) n (%)
  Hypertriglyceridemia, cases: 0 case
  Hypertriglyceridemia, grade III, number of subjects: 0 n
  Hypertriglyceridemia, grade III, percent of subjects: 0%
  Hypertriglyceridemia, number of subjects (%): 0 (0) n (%)
  Increased alanine aminotransferase, cases: 2 case
  Increased alanine aminotransferase, grade I, number of subjects: 2 n
  Increased alanine aminotransferase, grade I, percent of subjects: 25.00%
  Increased alanine aminotransferase, grade II, number of subjects: 0 n
  Increased alanine aminotransferase, grade II, percent of subjects: 0%
  Increased alanine aminotransferase, number of subjects (%): 2 (25) n (%)
  Increased aspartate aminotransferase, cases: 1 case
  Increased aspartate aminotransferase, grade I, number of subjects: 1 n
  Increased aspartate aminotransferase, grade I, percent of subjects: 12.50%
  Increased aspartate aminotransferase, grade II, number of subjects: 0 n
  Increased aspartate aminotransferase, grade II, percent of subjects: 0%
  Increased aspartate aminotransferase, number of subjects (%): 1 (12.5) n (%)
  Increased bilirubin, cases: 0 case
  Increased bilirubin, grade I, number of subjects: 0 n
  Increased bilirubin, grade I, percent of subjects: 0%
  Increased bilirubin, number of subjects (%): 0 (0) n (%)
  Increased creatinine, cases: 1 case
  Increased creatinine, grade I, number of subjects: 1 n
  Increased creatinine, grade I, percent of subjects: 12.50%
  Increased creatinine, number of subjects (%): 1 (12.5) n (%)
  Increased γ-glutamyltransferase, cases: 0 case
  Increased γ-glutamyltransferase, grade I, number of subjects: 0 n
  Increased γ-glutamyltransferase, grade I, percent of subjects: 0%
  Increased γ-glutamyltransferase, number of subjects (%): 0 (0) n (%)
  Rash, cases: 0 case
  Rash, grade I, number of subjects: 0 n
  Rash, grade I, percent of subjects: 0%
  Rash, number of subjects (%): 0 (0) n (%)
  Total adverse reactions, cases: 6 case
  Total adverse reactions, number of subjects (%): 3 (37.5) n (%)
100 mg q.d., 28 days
  Adverse reactions, grade I, number of subjects: 4 n
  Adverse reactions, grade I, percent of subjects: 50.00%
  Adverse reactions, grade II, number of subjects: 1 n
  Adverse reactions, grade II, percent of subjects: 12.50%
  Adverse reactions, grade III, number of subjects: 0 n
  Adverse reactions, grade III, percent of subjects: 0%
  Adverse reactions, total (all grades), number of subjects: 5 n
  Adverse reactions, total (all grades), percent of subjects: 62.5%
  Decreased neutrophil count, cases: 1 case
  Decreased neutrophil count, grade II, percent of subjects: 12.50%
  Decreased neutrophil count, grade III, number of subjects: 0 n
  Decreased neutrophil count, grade III, percent of subjects: 0%
  Decreased neutrophil count, number of subjects (%): 1 (12.5) n (%)
  Decreased platelet count, cases: 1 case
  Decreased platelet count, grade I, number of subjects: 1 n
  Decreased platelet count, grade I, percent of subjects: 12.50%
  Decreased platelet count, number of subjects (%): 1 (12.5) n (%)
  Decreased serum phosphorus, cases: 0 case
  Decreased serum phosphorus, grade I, number of subjects: 0 n
  Decreased serum phosphorus, grade I, percent of subjects: 0%
  Decreased serum phosphorus, number of subjects (%): 0 (0) n (%)
  Decreased white blood cell count, cases: 1 case
  Decreased white blood cell count, grade II, percent of subjects: 12.50%
  Decreased white blood cell count, number of subjects (%): 1 (12.5) n (%)
  Hypertriglyceridemia, cases: 0 case
  Hypertriglyceridemia, grade III, number of subjects: 0 n
  Hypertriglyceridemia, grade III, percent of subjects: 0%
  Hypertriglyceridemia, number of subjects (%): 0 (0) n (%)
  Increased alanine aminotransferase, cases: 3 case
  Increased alanine aminotransferase, grade I, number of subjects: 3 n
  Increased alanine aminotransferase, grade I, percent of subjects: 37.50%
  Increased alanine aminotransferase, grade II, number of subjects: 0 n
  Increased alanine aminotransferase, grade II, percent of subjects: 0%
  Increased alanine aminotransferase, number of subjects (%): 3 (37.5) n (%)
  Increased aspartate aminotransferase, cases: 2 case
  Increased aspartate aminotransferase, grade I, number of subjects: 2 n
  Increased aspartate aminotransferase, grade I, percent of subjects: 25.00%
  Increased aspartate aminotransferase, grade II, number of subjects: 0 n
  Increased aspartate aminotransferase, grade II, percent of subjects: 0%
  Increased aspartate aminotransferase, number of subjects (%): 2 (25) n (%)
  Increased bilirubin, cases: 0 case
  Increased bilirubin, grade I, number of subjects: 0 n
  Increased bilirubin, grade I, percent of subjects: 0%
  Increased bilirubin, number of subjects (%): 0 (0) n (%)
  Increased creatinine, cases: 0 case
  Increased creatinine, grade I, number of subjects: 0 n
  Increased creatinine, grade I, percent of subjects: 0%
  Increased creatinine, number of subjects (%): 0 (0) n (%)
  Increased γ-glutamyltransferase, cases: 1 case
  Increased γ-glutamyltransferase, grade I, number of subjects: 1 n
  Increased γ-glutamyltransferase, grade I, percent of subjects: 12.50%
  Increased γ-glutamyltransferase, number of subjects (%): 1 (12.5) n (%)
  Rash, cases: 1 case
  Rash, grade I, number of subjects: 1 n
  Rash, grade I, percent of subjects: 12.50%
  Rash, number of subjects (%): 1 (12.5) n (%)
  Total adverse reactions, cases: 10 case
  Total adverse reactions, number of subjects (%): 5 (62.5) n (%)
100 mg q.d., day 15, baseline 144.9 U/L
  maximum ALT level, patient E3010: 385.4 U/L
200 mg q.d., 28 days
  Adverse reactions, grade I, number of subjects: 3 n
  Adverse reactions, grade I, percent of subjects: 37.50%
  Adverse reactions, grade II, number of subjects: 0 n
  Adverse reactions, grade II, percent of subjects: 0%
  Adverse reactions, grade III, number of subjects: 1 n
  Adverse reactions, grade III, percent of subjects: 12.50%
  Adverse reactions, total (all grades), number of subjects: 4 n
  Adverse reactions, total (all grades), percent of subjects: 50.0%
  Decreased neutrophil count, cases: 0 case
  Decreased neutrophil count, grade II, number of subjects: 0 n
  Decreased neutrophil count, grade II, percent of subjects: 0%
  Decreased neutrophil count, grade III, number of subjects: 0 n
  Decreased neutrophil count, grade III, percent of subjects: 0%
  Decreased neutrophil count, number of subjects (%): 0 (0) n (%)
  Decreased platelet count, cases: 0 case
  Decreased platelet count, grade I, number of subjects: 0 n
  Decreased platelet count, grade I, percent of subjects: 0%
  Decreased platelet count, number of subjects (%): 0 (0) n (%)
  Decreased serum phosphorus, cases: 1 case
  Decreased serum phosphorus, grade I, number of subjects: 1 n
  Decreased serum phosphorus, grade I, percent of subjects: 12.50%
  Decreased serum phosphorus, number of subjects (%): 1 (12.5) n (%)
  Decreased white blood cell count, cases: 0 case
  Decreased white blood cell count, grade II, number of subjects: 0 n
  Decreased white blood cell count, grade II, percent of subjects: 0%
  Decreased white blood cell count, number of subjects (%): 0 (0) n (%)
  Hypertriglyceridemia, cases: 2 case
  Hypertriglyceridemia, grade III, percent of subjects: 12.50%
  Hypertriglyceridemia, number of subjects (%): 1 (12.5) n (%)
  Increased alanine aminotransferase, cases: 3 case
  Increased alanine aminotransferase, grade I, number of subjects: 3 n
  Increased alanine aminotransferase, grade I, percent of subjects: 37.50%
  Increased alanine aminotransferase, grade II, number of subjects: 0 n
  Increased alanine aminotransferase, grade II, percent of subjects: 0%
  Increased alanine aminotransferase, number of subjects (%): 3 (37.5) n (%)
  Increased aspartate aminotransferase, cases: 1 case
  Increased aspartate aminotransferase, grade I, number of subjects: 1 n
  Increased aspartate aminotransferase, grade I, percent of subjects: 12.50%
  Increased aspartate aminotransferase, grade II, number of subjects: 0 n
  Increased aspartate aminotransferase, grade II, percent of subjects: 0%
  Increased aspartate aminotransferase, number of subjects (%): 1 (12.5) n (%)
  Increased bilirubin, cases: 1 case
  Increased bilirubin, grade I, number of subjects: 1 n
  Increased bilirubin, grade I, percent of subjects: 12.50%
  Increased bilirubin, number of subjects (%): 1 (12.5) n (%)
  Increased creatinine, cases: 0 case
  Increased creatinine, grade I, number of subjects: 0 n
  Increased creatinine, grade I, percent of subjects: 0%
  Increased creatinine, number of subjects (%): 0 (0) n (%)
  Increased γ-glutamyltransferase, cases: 0 case
  Increased γ-glutamyltransferase, grade I, number of subjects: 0 n
  Increased γ-glutamyltransferase, grade I, percent of subjects: 0%
  Increased γ-glutamyltransferase, number of subjects (%): 0 (0) n (%)
  Rash, cases: 0 case
  Rash, grade I, number of subjects: 0 n
  Rash, grade I, percent of subjects: 0%
  Rash, number of subjects (%): 0 (0) n (%)
  Total adverse reactions, cases: 8 case
  Total adverse reactions, number of subjects (%): 4 (50) n (%)
50–200 mg q.d.
  relation of incidence of adverse reactions to dose: not significantly correlated to its increased dose
50–200 mg q.d., 28 days
  safety and tolerability: well tolerated; also recorded: safe and tolerated
  serious adverse events: no serious adverse events; also recorded: No serious AE
  withdrawal from the study: no patients withdrew
Across dose cohorts
  patients with a grade I adverse reaction (elevation of ALT or AST): 12.5–37.5%
All doses, 24 patients
  cases of AEs in the Canocapavir cohort: 38 cases
  cases of adverse reactions in the Canocapavir cohort: 24 cases
  patients with AEs in the Canocapavir cohort: 75%
  patients with adverse reactions in the Canocapavir cohort: 50%
